Where a name gives a salt, the structure may show the parent alone.
Biological target: T1, SIRT1 (Homo sapiens, UniProt Q96EB6)
T1 sequence (Q96EB6 1-747): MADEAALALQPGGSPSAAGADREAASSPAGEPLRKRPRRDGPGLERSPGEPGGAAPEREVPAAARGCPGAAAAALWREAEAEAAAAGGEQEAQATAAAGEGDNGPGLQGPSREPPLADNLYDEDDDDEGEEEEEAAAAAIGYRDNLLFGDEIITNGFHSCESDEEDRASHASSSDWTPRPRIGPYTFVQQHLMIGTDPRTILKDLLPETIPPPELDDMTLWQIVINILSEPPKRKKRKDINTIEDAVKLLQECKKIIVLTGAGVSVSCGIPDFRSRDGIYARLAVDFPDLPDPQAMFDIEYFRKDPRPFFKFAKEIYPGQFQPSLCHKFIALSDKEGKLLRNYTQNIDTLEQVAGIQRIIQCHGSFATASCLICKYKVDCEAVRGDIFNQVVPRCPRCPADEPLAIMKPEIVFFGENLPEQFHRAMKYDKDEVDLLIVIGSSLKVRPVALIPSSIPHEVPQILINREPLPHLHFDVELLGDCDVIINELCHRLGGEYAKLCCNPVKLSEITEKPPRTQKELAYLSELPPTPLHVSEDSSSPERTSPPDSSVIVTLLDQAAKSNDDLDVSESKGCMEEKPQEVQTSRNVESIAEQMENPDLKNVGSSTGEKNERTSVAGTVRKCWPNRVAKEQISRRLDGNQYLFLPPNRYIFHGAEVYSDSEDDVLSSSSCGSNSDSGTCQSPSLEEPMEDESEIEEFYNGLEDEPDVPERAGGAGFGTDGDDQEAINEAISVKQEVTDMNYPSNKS
Test: Mass spectrometry based SIRT1 activation assay (TAMRA/5TMR-labeled 20mer peptide)
Type: biochemical
Settings: for Emax: 25 min, percent maximum fold activation of SIRT1, read-out: % FOLD ACT.; for EC1.5 uM: concentration that results in 150% activation of SIRT1
Excerpt: A mass spectrometry based assay was used to identify modulators of SIRTI activity. The mass spectrometry based assay utilizes a peptide having 20 amino acid residues as follows: Ac-EE-K(biotin)-GQSTSSHSK(Ac)NleSTEG-K(5TMR)-EE-NH2 (SEQ ID NO: 1) wherein K(Ac) is an acetylated lysine residue and Nle is a norleucine. The peptide is labeled with the fluorophore 5TMR (excitation 540 nrnIemission 580 nm) at the C-terminus. The sequence of the peptide substrate is based on p53 with several modifications. In addition, the methionine residue naturally present in the sequence was replaced with the norleucine because the methionine may be susceptible to oxidation during synthesis and purification.
The mass spectrometry assay is conducted as follows: 0.5 J-1M peptide substrate and 120 μM βNAD^+ is incubated with 10 nM SIRT1 for 25 minutes at 25° C. in a reaction buffer (50 mM Tris-acetate pH 8, 137 mM NaCl, 2.7 mM KCl, 1 mM MgClz, 5 mM DTT, 0.05% BSA). Test compounds may be added to the reaction as described above. The SirTI gene is cloned into a T7-promoter containing vector and transformed into BL21 (DE3). After the 25 minute incubation with SIRT1, 10 μL of 10% formic acid is added to stop the reaction. Reactions are sealed and frozen for later mass spec analysis. Determination of the mass of the substrate peptide allows for precise determination of the degree of acetylation (i.e. starting material) as compared to deacetylated peptide (product).
A control for inhibition of sirtuin activity is conducted by adding 1 μL of 500 mM nicotinamide as a negative control at the start of the reaction (e.g., permits determination of maximum sirtuin inhibition). A control for activation of sirtuin activity is conducted using 10 nM of sirtuin protein, with 1 μL of DMSO in place of compound, to determine the amount of deacetylation of the substrate at a given timepoint within the linear range of the assay. This timepoint is the same as that used for test compounds and, within the linear range, the endpoint represents a change in velocity.
For the above assay, SIRTI protein was expressed and purified as follows. The SirT1 gene was cloned into a T7-promoter containing vector and transformed into BL21(DE3). The protein was expressed by induction with 1 mM IPTG as an N-terminal His-tag fusion protein at 18° C. overnight and harvested at 30,000×g. Cells were lysed with lysozyme in lysis buffer (50 mM Tris-HCl, 2 mM Tris[2-carboxyethyl]phosphine (TCEP), 10 μM ZnCl2, 200 mM NaCl) and further treated with sonication for 10 min for complete lysis. The protein was purified over a Ni-NTA column (Amersham) and fractions containing pure protein were pooled, concentrated and run over a sizing column (Sephadex S200 26/60 global). The peak containing soluble protein was collected and run on an Ion-exchange column (MonoQ). Gradient elution (200 mM-500 mM NaCl) yielded pure 20 protein. This protein was concentrated and dialyzed against dialysis buffer (20 mM TrisHCl, 2 mM TCEP) overnight. The protein was aliquoted and frozen at −80° C. until further use.
Sirtuin modulating compounds that activated SIRT1 were identified using the assay described above and are shown below in Table 4. The EC1.5 values represent the concentration of test compounds that result in 150% activation of SIRT1. The EC1.5 values for the activating compounds are represented by A (EC1.5≦1 μM), B (EC1.5>1 μM). The percent maximum fold activation is represented by A (Fold activation ≧200%) or B (Fold Activation <200%).

SMILES | Emax [%] | EC1.5 uM
O=C(Nc1ccccc1-c1cn2c(CN3CCNCC3)csc2n1)c1cccc(-c2ccccc2)c1 [Compound 1, N-(2-(3-(piperazin-1-ylmethyl)imidazo[2,1-b]thiazol-6-yl)phenyl)biphenyl-3-carboxamide] | ≥ 200 | A (EC1.5≦1 μM)
O=C(Nc1ccccc1-c1cn2c(CN3CCNCC3)csc2n1)c1nc2ncccc2o1 [Compound 3, N-(2-(3-(piperazin-1-ylmethyl)imidazo[2,1-b]thiazol-6-yl)phenyl)oxazolo[4,5-b]pyridine-2-carboxamide] | < 200 | B (EC1.5>1 μM)
O=C(Nc1ccccc1-c1nc2cc(CN3CC[C@@H](F)C3)cnc2s1)c1cccc(OC2CN3CCC2CC3)c1 (stereo partly drawn) [Compound 5, N-(2-(6-(((R)-3-fluoropyrrolidin-1-yl)methyl)thiazolo[5,4-b]pyridin-2-yl)phenyl)-3-(quinuclidin-3-yloxy)benzamide] | ≥ 200 | B (EC1.5>1 μM)
CC(C)CNCC1CC1C(=O)Nc1ccccc1-c1nc2cc(CN3CCNCC3)cnc2s1 (centres unmarked) [Compound 6] |  | B (EC1.5>1 μM)
COc1ccc(C(=O)Nc2ccccc2-c2nc3cc(COC4CCNCC4)cnc3s2)cc1OC [Compound 8, 3,4-dimethoxy-N-(2-(6-((piperidin-4-yloxy)methyl)thiazolo[5,4-b]pyridin-2-yl)phenyl)benzamide] | ≥ 200 | A (EC1.5≦1 μM)
O=C(Nc1cccc(COC2CCNCC2)c1)c1cccc2[nH]c(-c3ccnc(N4CCOCC4)c3)nc12 [Compound 17, 2-(2-morpholinopyridin-4-yl)-N-(3-((piperidin-4-yloxy)methyl)phenyl)-1H-benzo[d]imidazole-4-carboxamide] | ≥ 200 | A (EC1.5≦1 μM)
N#Cc1ccc(NC(=O)c2cccc3[nH]c(-c4ccc(N5CCNCC5)nc4)nc23)cc1C(F)(F)F [Compound 20, N-(4-cyano-3-(trifluoromethyl)phenyl)-2-(6-(piperazin-1-yl)pyridin-3-yl)-1H-benzo[d]imidazole-4-carboxamide] | ≥ 200 | A (EC1.5≦1 μM)
CCCCN(CCCC)c1cc(-c2nc3c(C(=O)Nc4cccc(COC5CCNCC5)c4)cccc3[nH]2)ccn1 [Compound 21] | ≥ 200 | A (EC1.5≦1 μM)

Continued, values first:

Emax [%] | EC1.5 uM | SMILES
< 200 | B (EC1.5>1 μM) | CN(C)CCNCc1cccc(C(=O)Nc2ccccc2-c2nc3cc(COC4CCNCC4)cnc3s2)c1 [Compound 9]
≥ 200 | A (EC1.5≦1 μM) | CCCNc1cc(-c2nc3c(NC(=O)c4cccc(C5CCNC5)c4)cccc3[nH]2)ccn1 (centres unmarked) [Compound 15, N-(2-(2-(propylamino)pyridin-4-yl)-1H-benzo[d]imidazol-4-yl)-3-(pyrrolidin-3-yl)benzamide hydrochloride]
< 200 | B (EC1.5>1 μM) | CN(C)CCCNc1ccc(-c2nc3cc(NC(=O)c4cccc(CN5CCNCC5)c4)ccc3[nH]2)cn1 [Compound 18]
≥ 200 | A (EC1.5≦1 μM) | COc1ccc2nc(NC(=O)c3cccc4[nH]c(-c5ccc(N6CCNCC6)nc5)nc34)sc2c1 [Compound 19, N-(6-methoxybenzo[d]thiazol-2-yl)-2-(6-(piperazin-1-yl)pyridin-3-yl)-1H-benzo[d]imidazole-4-carboxamide]

— US20130102009A1, “SIRTUIN ACTIVATORS AND ACTIVATION ASSAYS” (priority 2010, published 2013)
